According to patent US11945806B2, “Stabilization of amyloidogenic immunoglobulin light chains” (The Scripps Research Institute, priority 2019, dated 2024):

Target: WIL-FL (Homo sapiens, UniProt P01721)
Assay: Unlabeled LC Protease Sensitivity Assay (proteinase K)
Assay type: biochemical
Settings: small molecule 10 μM, WIL-FL 5 μM, proteinase K 50 nM, 2 hours at 37° C.
Method in brief: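 Compound at 10 μM (1% DMSO) is mixed with 5 μM WIL-FL and 50 nM proteinase K in PBS pH 7.4/0.02% Pluronic F-127, 37 °C, 2 h, then quenched with PMSF. Remaining protein measured by SEC-UPLC peak area at 280 nm and expressed as fold protection relative to vehicle and no-protease controls.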

| SMILES | Protection (fold protection of LC from protease) |
| --- | --- |
| CCN(CC)c1ccc2c(C)c(CCOC(=O)NCC3CCN(C)CC3)c(=O)oc2c1 [Compound 148, 2-(7-(diethylamino)-4-methyl-2-oxo-2H-chromen-3-yl)ethyl ((1-methylpiperidin-4-yl)methyl)carbamate] | B (3 ≤ B < 0.6) |
| CCN(CCc1ccccc1)c1ccc2c(C)cc(=O)oc2c1 [Compound 37, 7-(ethyl(phenethyl)amino)-4-methyl-2H-chromen-2-one] | A (A < 0.3)) |
| CCN(CC)c1ccc2c(CCCOC(=O)NCc3cccc(CCC(=O)OC)c3)cc(=O)oc2c1 [Compound 306, Methyl 3-(3-((((3-(7-(diethylamino)-2-oxo-2H-chromen-4yl)propoxy)carbonyl)amino)methyl)phenyl)propanoate] | A (A < 0.3)) |
| CCN(CC)c1ccc2c(C)c(CCOC(=O)NCC3CCNCC3)c(=O)oc2c1 [Compound 147, 2-(7-(diethylamino)-4-methyl-2-oxo-2H-chromen-3-yl)ethyl (piperidin-4-ylmethyl)carbamate] | B (3 ≤ B < 0.6) |
| Cc1cc(=O)oc2cc(OCCC(C)c3ccccc3)ccc12 (centres unmarked) [Compound 46, 4-methyl-7-(3-phenylbutoxy)-2H-chromen-2-one] | A (A < 0.3)) |
| CCN(CC)c1ccc2c(C)c(CCNC(=O)NCc3cccc(-c4c[nH]cn4)c3)c(=O)oc2c1 [Compound 291, 1-(3-(1H-imidazol-4-yl)benzyl)-3-(2-(7-(diethylamino)-4-methyl-2-oxo-2H-chromen-3-yl)ethyl)urea] | C (C ≥ 0.6) |
| CCN(CC)c1ccc2c(C)c(CCNC(=O)NCc3cnc4ccccc4c3)c(=O)oc2c1 [Compound 288, 1-(2-(7-(diethylamino)-4-methyl-2-oxo-2H-chromen-3-yl)ethyl)-3-(quinolin-3-ylmethyl)urea] | B (3 ≤ B < 0.6) |
| CCN(CC)c1ccc2c(C)c(CCOC(=O)NCc3ccco3)c(=O)oc2c1 [Compound 87, 2-(7-(diethylamino)-4-methyl-2-oxo-2H-chromen-3-yl)ethyl (furan-2-ylmethyl)carbamate] | B (3 ≤ B < 0.6) |
| CCNc1ccc2c(C)cc(=O)oc2c1 [Compound 270, 7-(ethylamino)-4-methyl-2H-chromen-2-one] | A (A < 0.3)) |
| CCN(CC)c1ccc2c(C)c(CCN3C(=O)NC4(CCN(c5ncnc6[nH]ncc56)CC4)C3=O)c(=O)oc2c1 [Compound 192, 3-(2-(7-(diethylamino)-4-methyl-2-oxo-2H-chromen-3-yl)ethyl)-8-(1H-pyrazolo[3,4-d]pyrimidin-4-yl)-1,3,8-triazaspiro[4.5]decane-2,4-dione] | C (C ≥ 0.6) |
| CCN(CC)c1ccc2c(C)c(CCO)c(=O)oc2c1 [Compound 53, 7-(diethylamino)-3-(2-hydroxyethyl)-4-methyl-2H-chromen-2-one] | A (A < 0.3)) |
| C=C(C)CN(CC(=C)C)c1ccc2c(C)cc(=O)oc2c1 [Compound 243, 7-(bis(2-methylallyl)amino)-4-methyl-2H-chromen-2-one] | A (A < 0.3)) |
| CCN(CC)c1ccc2c(C)c(CCOC(=O)NCc3cccc(-c4cnccn4)c3)c(=O)oc2c1 [Compound 157, 2-(7-(diethylamino)-4-methyl-2-oxo-2H-chromen-3-yl)ethyl (3-(pyrazin-2-yl)benzyl)carbamate] | C (C ≥ 0.6) |
| CCN(CC)c1ccc2c(O)cc(=O)oc2c1 [Compound 27, 7-(diethylamino)-4-hydroxy-2H-chromen-2-one] | A (A < 0.3)) |
| CCN(CC)c1ccc2c(C)c(CCN3C(=O)NC4(CCN(c5nccn6cnnc56)CC4)C3=O)c(=O)oc2c1 [Compound 217, 8-([1,2,4]triazolo[4,3-a]pyrazin-8-yl)-3-(2-(7-(diethylamino)-4-methyl-2-oxo-2H-chromen-3-yl)ethyl)-1,3,8-triazaspiro[4.5]decane-2,4-dione] | C (C ≥ 0.6) |
| CCN(CC)c1ccc2c(C)c(CCNC(=O)NCc3cc4ccccc4cn3)c(=O)oc2c1 [Compound 295, 1-(2-(7-(diethylamino)-4-methyl-2-oxo-2H-chromen-3-yl)ethyl)-3-(isoquinolin-3-ylmethyl)urea] | B (3 ≤ B < 0.6) |
| CCN(Cc1ccccc1)c1ccc2c(C)cc(=O)oc2c1 [Compound 35, 7-(benzyl(ethyl)amino)-4-methyl-2H-chromen-2-one] | A (A < 0.3)) |
| CCN(CC)c1ccc2c(C)c(CCOC(=O)NCc3cncc(NC(C)=O)c3)c(=O)oc2c1 [Compound 128, 2-(7-(diethylamino)-4-methyl-2-oxo-2H-chromen-3-yl)ethyl ((5-acetamidopyridin-3-yl)methyl)carbamate] | B (3 ≤ B < 0.6) |
| CCCN(CCC)c1ccc2c(C)cc(=O)oc2c1 [Compound 241, 7-(dipropylamino)-4-methyl-2H-chromen-2-one] | A (A < 0.3)) |
| CCN(CC)c1ccc2c(C)c(CCC(=O)O)c(=O)oc2c1 [Compound 62, 3-(7-(diethylamino)-4-methyl-2-oxo-2H-chromen-3-yl)propanoic acid] | A (A < 0.3)) |

Continued, values first:

| Protection (fold protection of LC from protease) | SMILES |
| --- | --- |
| A (A < 0.3)) | CCN(CC)c1ccc2c(CCCOC(=O)NCc3ccncc3)cc(=O)oc2c1 [Compound 301, 3-(7-(diethylamino)-2-oxo-2H-chromen-4-yl)propyl (pyridin-4-ylmethyl)carbamate] |
| A (A < 0.3)) | C#CCNc1ccc2c(C)cc(=O)oc2c1 [Compound 249, 4-methyl-7-(prop-2-yn-1-ylamino)-2H-chromen-2-one] |
| B (3 ≤ B < 0.6) | CCN(CC)c1ccc2c(C)c(CCNC(=O)NCc3cccc(Cl)n3)c(=O)oc2c1 [Compound 282, 1-((6-chloropyridin-2-yl)methyl)-3-(2-(7-(diethylamino)-4-methyl-2-oxo-2H-chromen-3-yl)ethyl)urea] |
| A (A < 0.3)) | Cc1cc(=O)oc2cc(NCCc3ccccc3)ccc12 [Compound 40, 4-methyl-7-(phenethylamino)-2H-chromen-2-one] |
| A (A < 0.3)) | CCN(CC)c1ccc2c(C)c(CC(=O)NCCCc3ccccc3)c(=O)oc2c1 [Compound 56, 2-(7-(diethylamino)-4-methyl-2-oxo-2H-chromen-3-yl)-N-(3-phenylpropyl)acetamide] |
| B (3 ≤ B < 0.6) | CCN(CC)c1ccc2c(C)c(CCN3C(=O)NC4(CCN(C(=O)c5c[nH]cn5)CC4)C3=O)c(=O)oc2c1 [Compound 176, 3-(2-(7-(diethylamino)-4-methyl-2-oxo-2H-chromen-3-yl)ethyl)-8-(1H-imidazole-4-carbonyl)-1,3,8-triazaspiro[4.5]decane-2,4-dione] |
| A (A < 0.3)) | O=C(CN1C(=O)CNC1=O)Nc1ccc(C(F)(F)F)cc1 [Compound 151, 2-(2,5-dioxoimidazolidin-1-yl)-N-(4-(trifluoromethyl)phenyl)acetamide] |
| B (3 ≤ B < 0.6) | CCN(CC)c1ccc2c(C)c(CCNC(=O)NCc3cccc(S(N)(=O)=O)c3)c(=O)oc2c1 [Compound 299, 3-((3-(2-(7-(diethylamino)-4-methyl-2-oxo-2H-chromen-3-yl)ethyl)ureido)methyl)benzenesulfonamide] |
| A (A < 0.3)) | CCN(CC)c1ccc2c(C)c(CCN3C(=O)NC4(CCN(c5ccc(C#N)cn5)CC4)C3=O)c(=O)oc2c1 [Compound 191, 6-(3-(2-(7-(diethylamino)-4-methyl-2-oxo-2H-chromen-3-yl)ethyl)-2,4-dioxo-1,3,8-triazaspiro[4.5]decan-8-yl)nicotinonitrile] |
| A (A < 0.3)) | CCN(CC)c1ccc2c(C)c(CCNC(=O)NCc3ccncn3)c(=O)oc2c1 [Compound 294, 1-(2-(7-(diethylamino)-4-methyl-2-oxo-2H-chromen-3-yl)ethyl)-3-(pyrimidin-4-ylmethyl)urea] |
| A (A < 0.3)) | CCN(CC)c1ccc2c(C)c(CCC(=O)NCCc3ccncc3)c(=O)oc2c1 [Compound 76] |
| A (A < 0.3)) | CCN(CC)c1ccc2c(C)c(CCNC(=O)NCc3cc(F)cc(C(=O)O)c3)c(=O)oc2c1 [Compound 297, 3-((3-(2-(7-(diethylamino)-4-methyl-2-oxo-2H-chromen-3-yl)ethyl)ureido)methyl)-5-fluorobenzoic acid] |
| A (A < 0.3)) | CCN(CC)c1ccc2c(C)c(CCOC(=O)N3CCN(c4ncccn4)CC3)c(=O)oc2c1 [Compound 116, 2-(7-(diethylamino)-4-methyl-2-oxo-2H-chromen-3-yl)ethyl 4-(pyrimidin-2-yl)piperazine-1-carboxylate] |
| A (A < 0.3)) | CCN(CC)c1ccc2c(C)c(CCOC(=O)NCc3ccc(Cl)nc3)c(=O)oc2c1 [Compound 97, 2-(7-(diethylamino)-4-methyl-2-oxo-2H-chromen-3-yl)ethyl ((6-chloropyridin-3-yl)methyl)carbamate] |
| A (A < 0.3)) | Cc1cc(=O)oc2cc(C(F)(F)F)ccc12 [Compound 169, 4-methyl-7-(trifluoromethyl)-2H-chromen-2-one] |
| A (A < 0.3)) | CCN(CC)c1ccc2c(C)c(CCC(=O)NCCc3ccccc3)c(=O)oc2c1 [Compound 64, 3-(7-(diethylamino)-4-methyl-2-oxo-2H-chromen-3-yl)-N-phenethylpropanamide] |
| A (A < 0.3)) | CCCNc1ccc2c(C)cc(=O)oc2c1 [Compound 242, 4-methyl-7-(propylamino)-2H-chromen-2-one] |
| A (A < 0.3)) | Cc1cc(=O)oc2cc(C(=O)O)ccc12 [Compound 225, 4-methyl-2-oxo-2H-chromene-7-carboxylic acid] |
